Reference: paper PMC8212937 (Alcoholism, clinical and experimental research, 2009)

Legend:
ALDH-1 = molecular target: T1, ALDH-1 (Homo sapiens, UniProt P00352); assay: fluorimetric dehydrogenase activity assay; format: biochemical
T1 sequence (P00352 2-501): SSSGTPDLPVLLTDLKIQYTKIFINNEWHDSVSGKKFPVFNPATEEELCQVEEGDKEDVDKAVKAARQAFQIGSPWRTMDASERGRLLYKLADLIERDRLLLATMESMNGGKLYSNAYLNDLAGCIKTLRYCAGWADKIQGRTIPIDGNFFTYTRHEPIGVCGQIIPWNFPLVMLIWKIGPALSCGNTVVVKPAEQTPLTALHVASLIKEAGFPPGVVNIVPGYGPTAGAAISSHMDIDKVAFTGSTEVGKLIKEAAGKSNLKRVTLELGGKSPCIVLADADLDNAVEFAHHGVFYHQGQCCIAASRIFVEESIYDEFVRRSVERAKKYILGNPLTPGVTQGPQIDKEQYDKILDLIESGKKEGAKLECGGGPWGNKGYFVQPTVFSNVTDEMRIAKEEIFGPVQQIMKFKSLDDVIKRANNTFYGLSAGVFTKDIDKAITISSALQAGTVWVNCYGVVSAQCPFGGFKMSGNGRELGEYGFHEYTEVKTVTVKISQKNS

[1] = molecular target: T2, aldehyde dehydrogenase 2 (ALDH-2) (Homo sapiens, UniProt P05091); assay: fluorimetric dehydrogenase activity assay; format: biochemical
T2 sequence (P05091 18-517): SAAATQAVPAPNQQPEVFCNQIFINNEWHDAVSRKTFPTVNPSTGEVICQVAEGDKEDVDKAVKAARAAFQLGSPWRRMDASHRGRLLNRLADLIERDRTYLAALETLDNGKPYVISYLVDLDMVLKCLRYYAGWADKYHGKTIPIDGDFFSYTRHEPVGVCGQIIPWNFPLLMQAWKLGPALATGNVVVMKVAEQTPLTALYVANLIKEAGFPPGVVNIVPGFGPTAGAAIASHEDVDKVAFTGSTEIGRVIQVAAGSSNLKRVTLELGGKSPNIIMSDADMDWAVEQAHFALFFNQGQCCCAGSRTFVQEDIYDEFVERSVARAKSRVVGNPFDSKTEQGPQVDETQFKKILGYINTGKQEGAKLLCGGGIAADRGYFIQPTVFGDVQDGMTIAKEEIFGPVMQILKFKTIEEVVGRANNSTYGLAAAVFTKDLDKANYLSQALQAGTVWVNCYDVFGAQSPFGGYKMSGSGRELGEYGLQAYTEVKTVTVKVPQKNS

Question: With `CS(=O)(=O)Nc1ccc(-c2coc3cc(OCc4cccc(C(=O)O)c4)ccc3c2=O)cc1` [CVT-10216, 3-((3-(4-(methylsulfonamido)phenyl)-4-oxo-4H-chromen-7-yloxy)methyl)benzoic acid] as the compound, how does the IC50 (ALDH-1) read?
Answer: Its IC50 is 1300 nM.

Question: And the IC50 [1]?
Answer: The IC50 was about 29 nM.
